From article PMC6199744, “Development of Chemical Proteomics for the Folateome and Analysis of the Kinetoplastid Folateome” (ACS Infectious Diseases, 2018)

Tested on: L. major lysate proteins
Assay: Multitargeted bead mixture chemoproteomics, single concentration competition, proteome-wide
Type: binding
Conditions: for fold change: vehicle control = 1

NCCOCCOCC(=O)Nc1nc2ncc(CNc3ccc(C(=O)NC(CCC(=O)O)C(=O)O)cc3)nc2c(=O)[nH]1 (stereo not shown) [compound 6]
fold change vs vehicle control (protein LMJF.15.0690 HY[…], CONSERVED): 1.26
fold change (protein LMJF.15.1010 GLUTAMATE DEHYDROGENASE): 1.11
fold change (protein LMJF.15.1190 HY[…], CONSERVED (cyclic nucleotide-binding domain containing protein, putative)): 1.07
fold change vs vehicle control (protein LMJF.16.0520 HYPOTHETICAL PROTEIN, CONSERVED): 0.99
fold change vs vehicle control (protein LMJF.16.0540 ASPARTATE […], PUTATIVE): 1.06
fold change relative to vehicle control (protein LMJF.16.0760, TRANSALDOLASE, PUTATIVE): 1.36
fold change vs vehicle control (protein LMJF.16.0940 DYNEIN LIGHT CHAIN, PUTATIVE): 0.92
fold change relative to vehicle control (protein LMJF.16.1180, COATOMER DELTA SUBUNIT-LIKE PROTEIN): 1.24
fold change relative to vehicle control (protein LMJF.16.1320, […], PUTATIVE): 1.33
fold change relative to vehicle control (protein LMJF.16.1420, HY[…], CONSERVED): 1.05
fold change relative to vehicle control (protein LMJF.17.0081, […] 1-ALPHA): 1.09
fold change relative to vehicle control (protein LMJF.18.0270, GLYCOGEN SYNTHASE KINASE, PUTATIVE): 1.13
fold change (protein LMJF.18.0580 PEROXISOMAL ENOYL-COA HYDRATASE, PUTATIVE): 0.98
fold change relative to vehicle control (protein LMJF.18.0680, CITRATE SYNTHASE, PUTATIVE): 1.1
fold change vs vehicle control (protein LMJF.18.1010 DYNEIN LIGHT CHAIN 2B, CYTOPLASMIC, PUTATIVE): 0.82
fold change vs vehicle control (protein LMJF.18.1210 PROLYL-TRNA SYNTHETASE, PUTATIVE,BIFUNCTIONAL AMINOACYL-TRNA SYNTHETASE, PUTATIVE): 1
fold change vs vehicle control (protein LMJF.18.1370 HEAT SHOCK PROTEIN, PUTATIVE): 1.1
fold change (protein LMJF.19.0200 ADP,ATP CARRIER PROTEIN 1, MITOCHONDRIAL PRECURSOR, PUTATIVE): 1.1
fold change vs vehicle control (protein LMJF.19.1120 PROTEASOME REGULATORY NON-ATP-ASE SUBUNIT, PUTATIVE): 0.96
fold change vs vehicle control (protein LMJF.19.1160 HY[…], CONSERVED): 1.08
fold change vs vehicle control (protein LMJF.19.1560 INOSINE-5'-MONOPHOSPHATE DEHYDROGENASE): 0.98
fold change relative to vehicle control (protein LMJF.19.1620, POTASSIUM VOLTAGE-GATED CHANNEL, PUTATIVE): 1.05
fold change vs vehicle control (protein LMJF.20.1280 SMALL MYRISTOYLATED PROTEIN 4, PUTATIVE): 0.89
fold change (protein LMJF.21.0810 METHIONYL-TRNA SYNTHETASE, PUTATIVE): 1.03
fold change (protein LMJF.21.1450 ARGININE N-METHYLTRANSFERASE, TYPE II, PUTATIVE): 0.96
fold change vs vehicle control (protein LMJF.21.1830 […] 5 SUBUNIT, PUTATIVE,20S […] ALPHA 5, (PUTATIVE)): 1.01
fold change (protein LMJF.22.0230 AMINO ACID PERMEASE, PUTATIVE): 1.05
fold change vs vehicle control (protein LMJF.22.0570 […] SUBUNIT 1, PUTATIVE): 1.03
fold change vs vehicle control (protein LMJF.22.0730 HYPOTHETICAL PROTEIN, CONSERVED): 0.94
fold change (protein LMJF.22.0770 NADH-CYTOCHROME B5 REDUCTASE, PUTATIVE): 0.79
fold change relative to vehicle control (protein LMJF.23.0020, HY[…], CONSERVED): 1.46
fold change relative to vehicle control (protein LMJF.23.0040, PEROXIDOXIN): 0.97
fold change relative to vehicle control (protein LMJF.23.0080, HY[…], CONSERVED): 1.04
fold change (protein LMJF.23.0210 ATP-BINDING CASSETTE PROTEIN SUBFAMILY C, MEMBER 1, PUTATIVE): 0.92
fold change (protein LMJF.23.0370 CYTOCHROME C OXIDASE SUBUNIT 10, PUTATIVE): 0.83
fold change relative to vehicle control (protein LMJF.23.0540, ACETYL-COA SYNTHETASE, PUTATIVE): 1.23
fold change vs vehicle control (protein LMJF.23.0560 KINESIN, PUTATIVE): 1.1
fold change vs vehicle control (protein LMJF.23.1410 HY[…], CONSERVED): 1.01
fold change relative to vehicle control (protein LMJF.24.0070, HYPOTHETICAL PROTEIN, CONSERVED): 0.93
fold change (protein LMJF.24.0140 ANKYRIN/TPR REPEAT PROTEIN): 1.06
fold change (protein LMJF.24.0400 HY[…], CONSERVED (TPR repeat, putative)): 1.02
fold change relative to vehicle control (protein LMJF.24.1510, IGE-DEPENDENT HISTAMINE-RELEASING FACTOR, PUTATIVE): 1.54
fold change relative to vehicle control (protein LMJF.24.1630, SUCCINATE DEHYDROGENASE FLAVOPROTEIN, PUTATIVE): 1.08
fold change relative to vehicle control (protein LMJF.24.2060, TRANSKETOLASE): 1.04
fold change relative to vehicle control (protein LMJF.25.0010, BETA […] TRANSFERASE): 1.13
fold change relative to vehicle control (protein LMJF.25.0910, CYCLOPHILIN A): 2.21
fold change vs vehicle control (protein LMJF.25.1130 CYTOCHROME C OXIDASE VII, PUTATIVE): 0.99
fold change relative to vehicle control (protein LMJF.25.1180, ATPASE BETA SUBUNIT, PUTATIVE): 1.13
fold change vs vehicle control (protein LMJF.25.1610 HY[…], CONSERVED): 1.01
fold change vs vehicle control (protein LMJF.25.1620 HYPOTHETICAL PROTEIN, CONSERVED): 1.1
fold change (protein LMJF.25.2340 SERINE/THREONINE-PROTEIN KINASE, PUTATIVE,PROTEIN KINASE, PUTATIVE): 0.74
fold change relative to vehicle control (protein LMJF.26.0630, HYPOTHETICAL PROTEIN, CONSERVED): 0.77
fold change vs vehicle control (protein LMJF.26.1240 HEAT SHOCK PROTEIN 70-RELATED PROTEIN): 1.06
fold change (protein LMJF.26.1710 CYTOCHROME C OXIDASE SUBUNIT V, PUTATIVE): 0.98
fold change vs vehicle control (protein LMJF.26.2480 CDP-DIACYLGLYCEROL--INOSITOL 3-[…], PUTATIVE): 1.06
fold change vs vehicle control (protein LMJF.26.2560 HYPOTHETICAL PROTEIN, CONSERVED): 0.93
fold change vs vehicle control (protein LMJF.27.0190 PROTEASOME ALPHA 7 SUBUNIT, PUTATIVE): 0.98
fold change (protein LMJF.27.0650 HY[…], CONSERVED): 1.15
fold change (protein LMJF.27.0700 HY[…], CONSERVED): 1.08
fold change vs vehicle control (protein LMJF.27.0760 GTP-binding protein homologue): 1.08
fold change vs vehicle control (protein LMJF.27.1060 CYSTEINE DESULFURASE, PUTATIVE): 1.09
fold change vs vehicle control (protein LMJF.27.1110 MITOCHONDRIAL RNA BINDING PROTEIN 1,GBP21, MRP1): 1
fold change (protein LMJF.27.1250 HYPOTHETICAL PROTEIN, CONSERVED (Serine-threonine kinase receptor-associated protein, putative)): 0.85
fold change relative to vehicle control (protein LMJF.27.1390, 60S ACIDIC RIBOSOMAL SUBUNIT PROTEIN, PUTATIVE): 1.07
fold change (protein LMJF.27.1460 PROTEASOME REGULATORY NON-ATP-ASE SUBUNIT 3, PUTATIVE): 1.1
fold change vs vehicle control (protein LMJF.28.0110 […] 3 SUBUNIT, PUTATIVE): 1.01
fold change vs vehicle control (protein LMJF.28.0490 PROPIONYL-COA CARBOXYLASE BETA CHAIN, PUTATIVE): 1.2
